Target: lymphocyte-specific protein tyrosine kinase (LCK) (Homo sapiens, UniProt P06239)
Experiment: ADP-Glo kinase assay; also fluorescence increase at […] nm on binding LCK after decaging of 3e, reversed by TC-S7003
Assay type: biochemical

Chain of lymphocyte-specific protein tyrosine kinase (LCK) (P06239 2-509): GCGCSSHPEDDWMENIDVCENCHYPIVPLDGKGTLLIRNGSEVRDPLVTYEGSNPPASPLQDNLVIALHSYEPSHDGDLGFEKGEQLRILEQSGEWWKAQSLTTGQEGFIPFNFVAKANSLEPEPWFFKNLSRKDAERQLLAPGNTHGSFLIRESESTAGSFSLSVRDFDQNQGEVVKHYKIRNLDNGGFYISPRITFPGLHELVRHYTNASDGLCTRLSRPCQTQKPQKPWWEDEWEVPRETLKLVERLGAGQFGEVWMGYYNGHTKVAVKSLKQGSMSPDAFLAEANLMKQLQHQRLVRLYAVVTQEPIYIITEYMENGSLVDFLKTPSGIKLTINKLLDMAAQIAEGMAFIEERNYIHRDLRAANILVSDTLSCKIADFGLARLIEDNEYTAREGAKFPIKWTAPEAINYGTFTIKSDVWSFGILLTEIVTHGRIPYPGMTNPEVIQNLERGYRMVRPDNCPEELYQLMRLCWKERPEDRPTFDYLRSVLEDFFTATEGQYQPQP

IC50: 2400 nM
SMILES: CC(C)n1nc(C#Cc2ccc3cc(N(C)C)ccc3c2)c2c(N)ncnc21 [compound 1, LCK inhibitor 1]

Reference: article PMC11077529, “All-photonic kinase inhibitors: light-controlled release-and-report inhibition” (Chemical Science, 2024)
